Results from patent publication US11020414B2, “Antimicrobial compositions with cysteamine” (priority 2010, dated 2021).
Values after ≈ are worked out from the molar mass of the structure shown. Values joined by “and” are separate entries in the source; they are usually repeats but may differ in a detail not shown here. Equal values may be shown once. Read-outs that look alike come from different tables or passages of the source.

Key:
[1] = test system: Pseudomonas aeruginosa Pa57388A; assay: FIC index of combinations with conventional antibiotics, strain Pa57388A; format: cell-based; conditions: strain Pa57388A (Col^R), listed as Cysteamine (NM001)
Procedure: (§1) The bacterial inoculum was established by the dilution method from actively-growing cultures in Mueller-Hinton (MH) broth, standardized with 0.5 McFarland turbidity standard as described in the CLSI method M26-A.
(§2) Both the bacterial inoculum and the antimicrobial agents, including the compounds structurally related to cysteamine, were added simultaneously to the plates. The plates were incubated at 37° C. for 24 h and the optical density was read at 625 nm on a microtitre plate reader (BioTek Powerwave XS, Winooski, USA). The MIC was obtained as the lowest concentration of antimicrobial showing total inhibition of bacterial growth.
(§3) The FIC corresponds to an interaction coefficient indicating whether the combination of antimicrobial agents is synergistic, additive, antagonist or neutral. The FIC is determined by comparing the activity of an agent in combination (MIC of agent A+agent B) with the activity of the agent alone (MIC of agent A or agent B) as follow (Singh et al., 2000): FIC=MICA[combination]/MICA[alone]+MICB[combination]/MICB[alone]
(§4) Additive combinations of two antimicrobial agents are indicated by a FIC index of 1, whereas a FIC index<1 indicates synergistic combinations. Neutral combinations would give a FIC between 1 and 4, a FIC index higher than 4 indicates antagonist effects between the two antimicrobial agents.
(§5) The FIC was also calculated to assess the interaction of two antimicrobial agents in combination against bacterial samples.

[2] = test system: Pseudomonas planktonic cells; assay: Antibacterial activity of Tobramycin and cysteamine, separately and combined (FIG. 1); format: cell-based; conditions: FIG. 1b
Procedure: FIG. 1A and FIG. 1B: provide a comparison of the antibacterial activity of Tobramycin and cysteamine (NM001) against Pseudomonas planktonic cells when administered separately, and in combined form. NM001 reduces the MIC of Tobramycin against planktonic cells by at least 4-fold (FIG. 1b)
as §2

[3] = test system: Pseudomonas aeruginosa NH57388A; assay: MIC determination, strain NH57388A; format: cell-based
Procedure: as §1
(§6) Both the bacterial inoculum and the antimicrobial agents, including the compounds structurally related to cysteamine, were added simultaneously to the plates. The plates were incubated at 37° C. for 24 h and the optical density was read at 625 nm on a microtitre plate reader (BioTek Powerwave XS, Winooski, USA). […]
(§7) A number of compounds related in chemical structure to cysteamine were examined for antimicrobial activity; cystamine (dihydrochloride salt), taurine and 2,3-dimercaptosuccinic acid. Other compounds chemically related to cysteamine are known, but are toxic, and are therefore of no utility in a drug of this nature.

[4] = test system: Pseudomonas aeruginosa Pa01; assay: FIC index of combinations with conventional antibiotics, strain Pa01; format: cell-based; conditions: strain Pa01 (Col^R), listed as Cysteamine (NM001)
Procedure: as §1, §2, §3, §4, §5

[5] = test system: Pseudomonas aeruginosa Pa058; assay: FIC index of combinations with conventional antibiotics, strain Pa058; format: cell-based; conditions: strain Pa058 (Col^R, Cip^R Tob^R), listed as Cysteamine (NM001)
Procedure: as §1, §2, §3, §4, §5

[6] = test system: P. aeruginosa PAO1 biofilm; assay: Minimum biofilm eradication concentration against established biofilm (FIG. 4); format: cell-based, Pseudomonas aeruginosa
[7] = test system: P. aeruginosa PAO1 planktonic cells; assay: MIC in physiologically-relevant ionic concentrations (FIG. 7); format: cell-based, Pseudomonas aeruginosa
Procedure: Bacterial growth was followed over a 24 h period and absorbance read using a BioTek microtitre plate reader at 625 nm. Total bacterial growth inhibition was retained in the presence of NaCl, CaCl2 or DNA and at two-fold the normal MIC100 in the presence of mucin. Tobramycin activity was inhibited in the presence of the divalent cation ca^2+ and in the presence of the anionic polymer DNA. […] A similar method as described above (1.4) was used for the determination of the antimicrobial activity of cysteamine (Lynovex®) in the presence of high ionic concentrations. […] Bacterial growth was followed over a 24 h period and absorbance read using a BioTek microtitre plate reader at 625 nm.

[8] = test system: Burkholderia cepacia NCTC10744; assay: MIC100 and FIC of cysteamine and tobramycin, MH broth (CLSI) and artificial sputum medium; format: cell-based; conditions: read-out: MIC100, agent alone
Procedure: as §2, §3
(§8) The complex pathophysiology of CF is characterized by airway obstruction caused by abnormal mucus secretion and infection, with 60-80% of patients being chronically infected with the biofilm-forming bacteria Pseudomonas aeruginosa (George et al., 2009). With a prevalence of up to 10% in adult CF patients, B. cepacia complex is a rare but major concern due to its high virulence, morbidity and transmissibility (O'Malley, 2009; Brüssow, 2012). We tested the antimicrobial activity of cysteamine-tobramycin combinations in artificial sputum medium (Yang, et al., 2011) against 4 P. aeruginosa (PAO1, ATCC27853, DSMZ1128 and DSMZ1299) and 2 B. cepacia complex strains (NCTC10743 and NCTC10744).

[9] = test system: Burkholderia cepacia NCTC10743; assay: as above; format: cell-based
Procedure: as §2, §3, §8

[10] = test system: Pseudomonas aeruginosa Pa058; assay: MIC determination, strain Pa058; format: cell-based
Procedure: as §1, §6, §7

[11] = test system: Pseudomonas aeruginosa Pa57388D; assay: FIC index of combinations with conventional antibiotics, strain Pa57388D; format: cell-based; conditions: strain Pa57388D (Col^R, Gent^R), listed as Cysteamine (NM001)
Procedure: as §1, §2, §3, §4, §5

[12] = test system: 4 P. aeruginosa (PAO1, ATCC27853, DSMZ1128 and DSMZ1299) and 2 B. cepacia complex strains (NCTC10743 and NCTC10744); assay: microbe, parasite or virus in culture; format: cell-based, Pseudomonas aeruginosa; Burkholderia cepacia complex; conditions: Pseudomonas aeruginosa, read-out: MIC100
From the text: as §8

[13] = in combination with Ciprofloxacin

NCCS [Cysteamine, cysteamine]
FICI (Additive) Cip [1, 13]: 0.63 | FICI (Additive) Col ([1]; in combination with Colistin): 0.52 and 0.51 and 0.63 and 0.56 | FICI (Synergy) Col ([1]; in combination with Colistin): 0.38 and 0.31 | FICI (Additive) Gent ([1]; in combination with Gentamicin): 0.5 and 0.56 and 0.75 | FICI (Synergy) Gent ([1]; in combination with Gentamicin): 0.38 | FICI (Additive) Tob ([1]; in combination with Tobramycin): 0.63 and 0.75 and 0.5 and 0.56 | FICI (Synergy) Tob ([1]; in combination with Tobramycin): 0.31 and 0.38 | reduction of the MIC of Tobramycin by NM001 [2]: at least 4 fold | MIC50 [3]: 250 µg/mL (≈ 3.24 mM) | MIC90 [3]: 250 to 500 µg/mL (≈ 3.24 to 6.48 mM) | MIC ([3]; read-out: MIC100): 667 µg/mL (≈ 8.64 mM) | FICI (Additive) Col ([4]; in combination with Colistin): 0.53 and 0.56 | FICI (Synergy) Col ([4]; in combination with Colistin): 0.38 and 0.31 and 0.25 | FICI (Additive) Gent ([4]; in combination with Gentamicin): 0.5 and 0.53 and 0.63 | FICI (Synergy) Gent ([4]; in combination with Gentamicin): 0.38 | FICI (Additive) Tob ([4]; in combination with Tobramycin): 0.63 | FICI (Synergy) Tob ([4]; in combination with Tobramycin): 0.31 and 0.28 and 0.25 | FICI (Additive) Cip [5, 13]: 0.53 and 0.56 | FICI (Additive) Col ([5]; in combination with Colistin): 0.75 and 0.53 and 0.56 and 0.5 | FICI (Additive) Gent ([5]; in combination with Gentamicin): 0.56 and 0.5 and 0.75 | FICI (Additive) Tob ([5]; in combination with Tobramycin): 0.52 and 0.56 and 0.5 and 0.53 and 0.63 and 0.75 | minimum biofilm eradication concentration (MBEC), agent alone [6]: 1000 µg/mL | total bacterial growth inhibition (MIC100) versus normal condition ([7]; in the presence of 150 mM NaCl, 1.7 mM CaCl2 or 1 mg/ml DNA): retained | concentration for total growth inhibition relative to the normal MIC100 ([7]; in the presence of 1% (w/v) porcine gastric mucin): two-fold | MIC ([8]; NCTC10744, B. cepacia NH10744, ASM (Artificial Sputum Medium)): 500 µg/mL | MIC ([8]; NCTC10744, B. cepacia NH10744, CLSI): 250 µg/mL | MIC ([9]; NCTC10743, B. cepacia NCTC10743, FIG. 6, read-out: MIC100, agent alone): 500 µg/mL | MIC ([9]; NCTC10743, B. cepacia NCTC10743, in both media (MH broth and ASM), FIG. 11, read-out: MIC100, agent alone): 500 µg/mL | MIC ([9]; NCTC10743, B. cepacia NH10743, ASM (Artificial Sputum Medium), read-out: MIC100, agent alone): 500 µg/mL | MIC ([9]; NCTC10743, B. cepacia NH10743, CLSI, read-out: MIC100, agent alone): 250 µg/mL | MIC50 [10]: 500 µg/mL (≈ 6.48 mM) | MIC90 [10]: 1000 µg/mL (≈ 13 mM) | MIC ([10]; read-out: MIC100): 1000 µg/mL (≈ 13 mM) | FICI (Additive) Cip [11, 13]: 0.53 and 0.56 and 0.52 and 0.75 | FICI (Additive) Col ([11]; in combination with Colistin): 0.62 and 0.53 and 0.56 and 0.5 | FICI (Synergy) Col ([11]; in combination with Colistin): 0.31 and 0.38 | FICI (Additive) Gent ([11]; in combination with Gentamicin): 0.5 and 0.63 and 0.51 | FICI (Synergy) Gent ([11]; in combination with Gentamicin): 0.38 | FICI (Additive) Tob ([11]; in combination with Tobramycin): 0.56 and 0.51 and 0.52 | FICI (Synergy) Tob ([11]; in combination with Tobramycin): 0.38 and 0.31 and 0.25 | MIC [12]: 250 to 500 µg/mL
